Source: PubChem BioAssay AID588599 (Sanford-Burnham Center for Chemical Genomics, 2011)

Target: Caspase-3 (Homo sapiens) (UniProt P42574)
Experiment: inhibition of recombinant caspase-3 activity – biochemical, luminescence, set 2, selectivity assay for SENP protease inhibitor project, SAR follow-up (AID 588599)
Settings: recombinant caspase-3, Z-DEVD-aminoluciferin luminescence, 60 min

Caspase-3 (Homo sapiens), sequence (P42574 28-227 limits assumed): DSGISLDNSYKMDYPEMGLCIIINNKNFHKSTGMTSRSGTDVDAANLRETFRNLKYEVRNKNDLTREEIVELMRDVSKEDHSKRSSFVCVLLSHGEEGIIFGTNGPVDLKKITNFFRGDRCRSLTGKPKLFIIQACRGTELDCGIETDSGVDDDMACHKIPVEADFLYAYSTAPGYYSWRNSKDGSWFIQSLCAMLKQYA

SMILES: CCCCc1ccc2nc(NC(=O)c3sccc3Cl)sc2c1
- IC50: 1.11 µM

SMILES: Cc1cccc(-c2noc(/C=C/c3ccccc3)n2)c1
- IC50: 10.6 µM

SMILES: O=C(Nc1nc2ccccc2s1)c1cc2ccccc2s1
- IC50: 0.515 µM

SMILES: Fc1ccc(/C=C/c2noc(-c3ccccc3I)n2)cc1
- IC50: 23.9 µM
